The target in this test is γ-secretase (Homo sapiens, UniProt P49768). The test can be described thus: Cellular γ-secretase assay (inhibition of Aβ42 secretion, AlphaLisa). It is filed as cell-based. Conditions: human neuroglioma H4 cells overexpressing human APP695 Swedish double mutation, 24 h compound incubation. Here is the method: 2.1) Assay Procedure: Cellular γ-Secretase Assay Human neuroglioma H4 cells overexpressing human APP695 with the Swedish double mutation (K595N/M596L) were plated at 30,000 cells/well/100 μL in 96-well plates in IMDM containing 10% FCS, 0.2 mg/L Hygromycin B and incubated at 37° C., 5% CO2. 3-4 h post plating, compounds are a diluted in media and 50 μL is added as 1.5-fold concentrate to achieve the final concentration. Compound incubation is performed for 24 h. Final doses typically range from 4 μM down to 0.0013 μM in half-log steps resulting in an eight-point dose response curve. Appropriate controls using vehicle only and reference compound were applied to this assay. The final concentration of Me2SO was 0.4%. After incubation at 37° C., 5% CO2, the supernatant was subjected to quantification of secreted Aβ42 by the means of an AlphaLisa® assay kit (Human Amyloid beta 1-42 Kit, Perkin Elmer Inc.). 20 μL of the cell culture supernatant was transferred to an assay plate. Then 10 μL of a mixture of the AlphaLisa® coupled capture antibody and the biotinylated detection antibody was added and incubated for 3 h at RT while softly shaking the assay plate. After a further addition of 20 μL of the Donor beads the assay plate was incubated for 30 min at RT and constant shaking without exposure to direct light. The assay plate was then read on a Paradigm AlphaLisa® Reader using the build-in program with excitation at 680 nm and emission at 570 nm. The measured signals were then used to calculate IC50 values for inhibition of Aβ42 secretion by nonlinear regression fit analysis using XLfit 5.3 software (from IDBS Ltd).
A general note: Bead proximity is the source of the signal in Alpha formats.

Compound `COc1cc(N2C[C@H]3CC[C@@H](C2)[C@@H]3Nc2nc3n(n2)CC[C@H]3Oc2cc(F)cc(F)c2)cnn1` (single isomer, unassigned) [Example 1] displayed an IC50 of 12.8 nM.

With `COc1cc(N2C[C@H]3CC[C@@H](C2)[C@@H]3Nc2nc3n(n2)CC[C@@H]3Oc2cc(F)cc(F)c2)cnn1` (single isomer, unassigned) [Example 2], the IC50 is 73.8 nM. This IC50 is about 5.8-fold higher than that of the compound before. To `COc1cc(N2C[C@H]3CC[C@@H](C2)[C@@H]3Nc2nc3n(n2)CCC[C@H]3Oc2cc(F)cc(F)c2)cnn1` (single isomer, unassigned) [Example 9] belongs 10.6 nM; to `Cc1cc(N2C[C@H]3CC[C@@H](C2)[C@@H]3Nc2nc3n(n2)CCC[C@@H]3Oc2cc(F)cc(Cl)c2)cnn1` (single isomer, unassigned) [Example 14], 62.7 nM. Next, `COc1cc(N2C[C@H]3CC[C@@H](C2)[C@@H]3Nc2nc3n(n2)CCC[C@H]3Oc2ccccc2Cl)cnn1` (single isomer, unassigned) [Example 25]: 15.7 nM; `Cc1cc(N2C[C@H]3CC[C@@H](C2)[C@@H]3Nc2nc3n(n2)CC[C@@H]3Oc2ccc(Cl)cc2)ncn1` (single isomer, unassigned) [Example 28]: 71.4 nM; `Cc1cc(N2C[C@H]3CC[C@@H](C2)[C@@H]3Nc2nc3n(n2)CC[C@@H]3Oc2cccc(Cl)c2)ncn1` (single isomer, unassigned) [Example 30]: 51.9 nM. Next, `Cc1cc(N2C[C@H]3CC[C@@H](C2)[C@@H]3Nc2nc3n(n2)CCC[C@H]3Oc2ccc(F)cc2F)ncn1` (single isomer, unassigned) [Example 37]: 21.6 nM; `Cc1cc(N2C[C@H]3CC[C@@H](C2)[C@@H]3Nc2nc3n(n2)CC[C@H]3Oc2cc(F)cc(F)c2)ncn1` (single isomer, unassigned) [Example 39]: 15.6 nM; `Cc1cc(N2C[C@H]3CC[C@@H](C2)[C@@H]3Nc2nc3n(n2)CCCC[C@@H]3Oc2ccc(F)c(F)c2F)ncn1` (single isomer, unassigned) [Example 62]: 65.8 nM.

One may read the IC50 as the concentration at which inhibition is half-maximal. A lower IC50 goes with inhibition by little substance.

Values taken from patent publication US12195470B2, “7-phenoxy-N-(3-azabicyclo[3.2.1]octan-8-yl-6,7-dihydro-5H-pyrrolo[1,2-b][1,2,4]triazol-2-amine derivatives and related compounds as gamma- secretase modulators for the treatment of alzheimer's disease” (Hoffmann-La Roche Inc., priority 2018, dated 2025).
